Values of other authors in US20160354348A1, “METHODS FOR PROPHYLATIC APPETITE SUPPRESSION” (Orexigen Therapeutics, Inc., priority 2005, published 2016).
Like-named read-outs stand apart in the source and are kept apart here.

Assays:
[1] = Colosimo & De Michele 1999
[2] = 20-25° C.

Elimination half-life (T1/2) [1]	t1/2 in erythrocytes (erythrocytes)	Protein bound (in vivo) [%]	Half-life (t1/2) in plasma	Half-life (t1/2) in plasma (listed as Zonisamide) [h]	Solubility in aqueous acid [2]	SMILES
about 1.5 hours	–	–	–	–	–	N[C@@H](Cc1ccc(O)c(O)c1)C(=O)O [levodopa]
–	about 105 hours	40	about 63 hours	63 to 69	about 200 mg/ml	NS(=O)(=O)Cc1noc2ccccc12 [zonisamide, 1,2-benzisoxazole-3-methanesulfonamide]
